Test results from patent US7875607B2, “7,8-bicycloakyl-chroman derivatives” (Ampere Life Sciences, Inc., priority 2004, dated 2011).
pEC50, pIC50: −log10 of the molar value.

Legend:
[1] = tested on: dopaminergic neuronal cell line; assay: High glutamate-induced oxidative stress assay (HGOS); assay type: cell-based; conditions: Mus musculus; 30 mM glutamate, 16 hrs; read-out: EC50, protection against HGOS cell injury and cell death
Source text: Protection against redox stress can be further evaluated in cell culture using high glutamate induced oxidative stress (HGOS) in mouse dopaminergic cell lines. The cytotoxic effect of glutamate is not due to excitotoxicity, as this cell line is devoid of inotropic glutamate receptors. Rather, the glutamate-induced toxicity of dopaminergic cells is associated with an inhibition of cystine transport which subsequently leads to depletion of intracellular glutathione (GSH) levels (Murphy T. H., et al. Neuron 2, 1547-1558, 1989), activation of neuronal 12-lipoxygenase (Li, Y. et al., Neuron 19, 453-463, 1997), increased ROS production (Tan S. et al., J. Cell Biol. 141, 1423-1432, 1998) and elevated intracellular Ca^2+ (Li, Y. et al., see supra). Some molecules were measured for their ability to protect cells against glutamate-induced stress and the assay is detailed in Examples.
This procedure was used to induce high glutamate-induced oxidative stress (HGOS) in a dopaminergic neuronal cell line. Using this assay the potency and efficacy of test articles against HGOS neuronal cell injury and cell death was established in a high throughput manner.
The cells were seeded into 96-well plates at a density of 2000 per well and left to grow for 72 hours in a 33° C. incubator with 5% CO2 in air atmosphere. The passage number of the cells for each assay experiment were no later than p11 in order to minimize experimental variation.
All compounds were dissolved in DMEM-No Glu containing 1 mM glucose, 30 mM glutamate and 1×Pen/Strep. DMEM-No Glu with 1 mM glucose and 1×P/S was used as the negative control, DMEM-No Glucose with 1 mM glucose, […] was used as a positive control and 100 μM Glutathione was added to the positive control as a standard. All of the procedures for this involving the making and dilution of compounds were performed using aseptic conditions and with minimal light.
The plates were removed from the incubator and examined under the microscope for morphological appearance and density. Using an aseptic technique and an 8-channel aspirator the media was carefully removed from the cells and replaced with 200 μl of 1×HBSS. This was done as quickly as possible to prevent the cells drying out. The plates were then placed in the humidified 37° C. incubators of the Biomek 2000 Side Loader. Four plates were washed at a time so as to minimize the time that the cells were sitting in 1×HBSS prior to addition of the compound test solution.
The Beckman Biomek workstations were used to load the compounds and controls from the mother plates onto the cell plates that were prewashed with HBSS under sterile conditions. The plates were incubated in the upper HTS incubator at 37° C. in 5% CO2 for exactly 16 hrs. The following day, using the Beckman Biomek workstations, the plates were removed from the incubator. Using Cell Tracker Addition, the compounds were removed from the plates, washed once with […] of pre-warmed 1×HBSS and then 100 μL of 5 μM Cell Tracker Green was added to each well. The plates were incubated at 37° C. for 30 min to allow the dye to enter the cell and be cleaved by the esterases. After washing the cells twice with prewarmed 1×HBSS, the plates were read with the 485 excitation; 538 emission filter pair on a Fluoroskan.

[2] = tested on: ELAM (E-selectin) expression in endothelial cells; assay: Cell-ELAM assay; assay type: cell-based; conditions: 10 μg/ml LPS and 100 pg/ml IL-1β, 6 hours
Source text: In vitro cell-based assays for inflammation are well known in the art, for example e-selectin (also named Endothelial Leukocyte Adhesion Molecule or ELAM) or C-reactive protein (CRP). The ELAM assay measures in vitro activity of the test compounds in reducing expression of ELAM in activated endothelial cells. Briefly, endothelial cells are […] by adding known activators such as lipopolysaccharides, TNF or IL-1, alone or in some combination. Activated cells produce ELAM, which can be measured using, for example, an E-selectin monoclonal antibody-based ELISA assay. Similarly the CRP assay measures in vitro activity of test compounds in reducing expression of CRP in Human Hep3B epithelial cells. The activated cells produce CRP, which can be measured with a CRP ELISA assay.
Endothelial-Leukocyte Adhesion Molecule (ELAM), also known as E-selectin, was expressed on the surface of endothelial cells. In this assay, lipopolysaccharide (LPS) and IL-1β were used to stimulate the expression of ELAM; test agents were tested for their abilities to reduce this expression, in accordance with studies showing that reduction of leukocyte adhesion to endothelial cell surface was associated with decreased cellular damage (e.g., Takada, M., Et al., Transplantation 64: 1520-25, 1997; Steinberg, J. B., et al., J. Heart Lung Trans. 13:306-313, 1994).
Endothelial cells may be selected from any of a number of sources and cultured according to methods known in the art; including, for example, coronary artery endothelial cells, human brain microvascular endothelial cells (HBMEC; Hess, D. C., et al., Neurosci. Lett. 213(1): 37-40, 1996), or lung endothelial cells. Cells were conveniently cultured in 96-well plates. Cells were stimulated by adding a solution to each well containing 10 μg/ml LPS and 100 pg/ml IL-1β for 6 hours in the presence of test agent (specific concentrations and time may be adjusted depending on the cell type) Treatment buffer was removed and replaced with pre-warmed Fixing Solution® (100 μl/well) for 25 minutes at room temperature. Cells were then washed 3×, then incubated with Blocking Buffer (PBS+2% FBS) for 25 minutes at room temperature. Blocking Buffer containing Monoclonal E-Selectin Antibody (1:750, Sigma Catalog # S-9555) was added to each well. Plates were sealed and stored at 4° overnight. Plates were washed 4× with 160 μL Blocking Buffer per well. Second Antibody-HRP diluted 1:5000 in Blocking Buffer was then added (100 μL/well), and plates were incubated at room temperature (protected from light) for two hours. Plates were then washed 4× with Blocking Buffer before addition of 100 μL of ABTS Substrate solution at room temperature (Zymed, Catalog # 00-2024). Wells were allowed to develop for 35 minutes, before measurement at 402 nm in a Fluoroskan® Reader with shake program for 10 seconds. Positive results were recorded as a decrease in ELAM concentration in tested wells, as compared to control wells.

[3] = target: T1, human recombinant 5-lipoxygenase (Homo sapiens, UniProt P09917); assay: 5-Lipoxygenase enzyme assay; assay type: biochemical; conditions: 70 μM arachidonic acid, pH 7.4
T1 construct: purchased Cayman 60402
T1 sequence (P09917 1-674): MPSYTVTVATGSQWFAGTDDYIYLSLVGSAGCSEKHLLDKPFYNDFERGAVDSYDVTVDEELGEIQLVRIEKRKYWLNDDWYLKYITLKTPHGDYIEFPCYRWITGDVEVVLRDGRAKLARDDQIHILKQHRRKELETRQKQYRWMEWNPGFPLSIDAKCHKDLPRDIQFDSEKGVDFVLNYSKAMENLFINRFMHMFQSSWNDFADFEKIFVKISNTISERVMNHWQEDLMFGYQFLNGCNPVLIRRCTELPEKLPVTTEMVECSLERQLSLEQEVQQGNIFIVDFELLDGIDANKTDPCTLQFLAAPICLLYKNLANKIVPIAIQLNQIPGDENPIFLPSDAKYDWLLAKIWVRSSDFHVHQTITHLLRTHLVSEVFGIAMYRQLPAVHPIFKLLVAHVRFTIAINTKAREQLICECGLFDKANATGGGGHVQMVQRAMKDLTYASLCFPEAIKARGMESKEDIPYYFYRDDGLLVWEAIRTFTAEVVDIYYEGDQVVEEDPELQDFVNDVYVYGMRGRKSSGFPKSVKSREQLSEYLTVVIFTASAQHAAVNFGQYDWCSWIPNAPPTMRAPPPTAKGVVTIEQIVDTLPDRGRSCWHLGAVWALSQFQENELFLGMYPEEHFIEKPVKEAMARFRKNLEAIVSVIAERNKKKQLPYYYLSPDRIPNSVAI
Description: This procedure was used for measuring the enzymatic activity of human recombinant 5-lipoxygenase using a […] method based on the ferric oxidation of xylenol orange.
Human recombinant 5-lipoxygenase (Cayman Cat # 60402) was used in this assay. The test compound and/or vehicle was added to 0.5U 5-lipoxygenase in 50 mM Tris-HCl buffer, pH 7.4. The reaction was initiated by addition of 70 μM arachidonic acid in Tris-HCl buffer, pH 7.4, and terminated after a 10 minute incubation at room temperature by addition of FOX reagent (25 mM sulphuric acid, 100 μM xylenol orange, 100 μM iron (II) sulphate, methanol:water 9:1). The yellow color of acidified xylenol orange was converted to a blue color by the lipid hydroperoxide-mediated oxidation of Fe^2+ ions and the interaction of the resulting Fe^3+ ions with the dye. The complex was allowed to form during a 1 hour incubation at room temperature with shaking. Absorbance of the Fe^3+ complex was then measured at […] using a spectrophotometer.
Negative controls contained enzyme during the incubation step but substrate was not added until after the FOX reagent.
Compounds were screened at 5 concentrations in triplicate starting at 10 μM

[4] = tested on: LTB4 production in heparinized whole blood; assay: Inhibition of LTB4 production in blood; assay type: cell-based, rat or mouse; conditions: 20 μM A23187, read-out: EC50, protection against LTB4
Description: The blood was collected in heparinized tubes or syringes to prevent clotting. Heparin was at 20 USP U/ml. About 3-5 ml of blood was collected per rat and about 0.5-0.75 ml per mouse. This assay required 200 μl/data point, therefore a 96 well plate requires 20 ml.
The Calcium ionophore A23187 was prepared as a 10 mM stock solution in DMSO and the test agent is prepared in DMSO so that <1 μl DMSO will be added to the well
200 μl blood per well were added in a round bottom 96 well clear plastic 96 well plate followed by the test agent. After 10 minutes incubation at 37° C., 5 μl of Calcium ionophore A23187 for a final concentration of 20 μM were added and mixed, and further incubated for 30 min. After 1000×g centrifugation to pellet blood cells, 20 μl plasma was carefully removed.
20 μl plasma were added to 80 μl methanol to precipitate protein and mixed. This was further incubated 10 min. at room temperature and centrifuged at 1000×g to pellet protein.
Following manufacturer's instructions, the commercially available EIA kit was used to subsequently measure the LTB4 production in the samples. The LTB4 levels produced in the vehicle control sample were then compared to those in which the test compound had been added. From this a percent inhibition of LTB4 production by each concentration of test compound was calculated and the IC50 for inhibition of LTB4 production for each test compound was determined.

[5] = tested on: LTB4 release from MPRO cell line; assay: LTB4-cell assay; assay type: cell-based; conditions: Mus musculus; differentiated MPRO cells, 1 μM A23187, 1 hour; read-out: EC50, inhibition of LTB4
Description: This procedure was used for measuring the release of the leukotriene LTB4 from a neutrophil cell line using a competitive ELISA technique.
A mouse promyelocytic cell line (MPRO) was used in this assay. These cells are committed immature neutrophils that can be differentiated into mature neutrophils by treatment with 10 μM all-trans retinoic acid for 72 hours
Following 72 hours of differentiation, cells were stimulated with 1 μM of a calcium ionophore (A23187) in the presence or absence of test compound or vehicle for 1 hour at 37° C. After this time, supernatant was removed from the cells and the LTB4 levels were determined following manufacturer's instructions, using a Leukotriene B4 EIA kit from Cayman (Cat # 520111)
The negative controls were media samples from differentiated but unstimulated cells.
The compounds were screened at 5 concentrations in quadruplicate starting at 10 μM

| SMILES | pEC50 [2] | pIC50 [3] | pEC50 [1] | pEC50 [4] | pEC50 [5] |
| --- | --- | --- | --- | --- | --- |
| CC1(CCCl)CCc2cc(O)c3c(c2O1)C1CCC3C1 (stereo not shown) [2-(2-Chloro-ethyl)-2-methyl-3,4,7,8,9,10-hexahydro-7,10-methano-2H-benzo[h]chromen-6-ol] | ≥ 4.52 |  | ≥ 6.00 |  |  |
| CC(C)=CCc1c(O)c2c(c3c1CCC(C)(C)O3)C1C=CC2CC1 (stereo not shown) [2,2-Dimethyl-5-(3-methyl-but-2-enyl)-3,4,7,10-tetrahydro-7,10-ethano-2H-benzo[h]chromen-6-ol] | ≥ 4.52 | ≥ 5.30 | ≥ 6.00 |  |  |
| CC1(CCCCl)CCc2cc(O)c3c(c2O1)C1CCC3CC1 (stereo not shown) [2-(3-Chloro-propyl)-2-methyl-3,4,7,8,9,10-hexahydro-7,10-ethano-2H-benzo[h]chromen-6-ol] |  |  | ≥ 6.00 | ≥ 5.00 | ≥ 5.30 |
| CC1(C)CCc2cc(O)c3c(c2O1)C1C=CC3C1 (stereo not shown) [2,2-Dimethyl-3,4,7,10-tetrahydro-7,10-methano-2H-benzo[h]chromen-6-ol] |  | ≥ 5.30 | ≥ 6.00 | ≥ 5.00 | ≥ 5.30 |

Second part, led by results:

| pEC50 [2] | pIC50 [3] | SMILES | pEC50 [1] | pEC50 [4] | pEC50 [5] |
| --- | --- | --- | --- | --- | --- |
| ≥ 4.52 |  | CC1(CCCSc2nc3ccccc3s2)CCc2cc(O)c3c(c2O1)C1CCC3C1 (stereo not shown) [2-[3-(Benzothiazol-2-ylsulfanyl)-propyl]-2-methyl-3,4,7,8,9,10-hexahydro-7,10-methano-2H-benzo[h]chromen-6-ol] | ≥ 6.00 |  |  |
|  | ≥ 5.30 | CC1(C)CCc2c(Br)c(O)c3c(c2O1)C1CCC3CC1 [5-Bromo-2,2-dimethyl-3,4,7,8,9,10-hexahydro-7,10-ethano-2H-benzo[h]chromen-6-ol] | ≥ 6.00 | ≥ 5.00 |  |
| ≥ 4.52 |  | CC1(C)CCc2c(Br)c(O)c3c(c2O1)C1CCC3C1 (stereo not shown) [5-Bromo-2,2-dimethyl-3,4,7,8,9,10-hexahydro-7,10-methano-2H-benzo[h]chromen-6-ol] | ≥ 6.00 |  |  |
